# Assay results published in US20250002467A1, “DESIGN, SYNTHESIS AND MECHANISMS OF ANTICANCER ACTIVITY OF NEW ACETYLATED 5-AMINOSALICYLATE-THIAZOLINONE HYBRID DERIVATIVES” (University of Sharjah, priority 2023, published 2025).
# Tests used:
# [1] = test system: HeLa; assay: SRB cytotoxicity assay, HeLa; type: cell-based
# Description: (§1) Eight different cancer cell lines were acquired from the Radiobiology and Experimental Radio Oncology lab, University Medical Center, Hamburg University, Hamburg, Germany. MCF7, MDA-MB-231 (breast cancer), and A549 (lung cancer) cells were maintained in RPMI medium while HCT116 (colon cancer), HepG2 (liver cancer), U87, U373 (glioblastoma), and HeLa (cervical cancer) were maintained in DMEM supplemented with 10% FBS and 1% penicillin/streptomycin (Sigma Aldrich, Missouri, USA). Normal human fibroblast (F180) cells were maintained in DMEM supplemented with 15% FBS. Normal human mammary epithelial cell line (HME1) were maintained in DMEM/F-12 medium supplemented with 10% FBS. All incubations were done at 37° C. in a humidified atmosphere of 5% CO2. All cell lines were authenticated by short tandem repeat (STR) profiling. The CDK4 knockout cells (provided by Dr. Samrein Ahmed, University of Sharjah, United Arab Emirates) were generated by CRISPR-CAS9 technology and were maintained in DMEM supplemented with 10% FBS.
# (§2) The cytotoxic effects of HH32 and HH33 compounds were evaluated at various concentrations ranging from 0.0001 to 100 μM by sulphrhodamine-B (SRB) assay as described previously. The anti-proliferative activity was expressed as growth inhibitory concentration (IC50) values, which were calculated by the sigmoidal dose-response curve fitting method using Graph pad prism 6 software (GraphPad Software, San Diego, CA, USA).
# [2] = test system: HepG2; assay: SRB cytotoxicity assay, HepG2; type: cell-based
# Description: as §1, §2
# [3] = test system: U87; assay: SRB cytotoxicity assay, U87; type: cell-based
# Description: as §1, §2
# [4] = test system: HME1; assay: SRB cytotoxicity assay, normal mammary epithelial HME1; type: cell-based, human; conditions: mean ± SEM
# Description: as §1, with “The CDK4 knockout cells (provided by Dr. Samrein Ahmed, University of Sharjah, United Arab Emirates) were generated by CRISPR-CAS9 technology and were maintained in DMEM supplemented with 10% FBS.” left out
# as §2
# [5] = test system: F-180; assay: SRB cytotoxicity assay, normal fibroblast F-180; type: cell-based, human; conditions: F-180 normal fibroblast, mean ± SEM
# Description: as §1, §2
# [6] = test system: HCT-116; assay: SRB cytotoxicity assay, HCT-116; type: cell-based
# Description: as §1, §2
# [7] = test system: MDA-MB-231; assay: SRB cytotoxicity assay, MDA-MB-231; type: cell-based
# Description: as §1, §2
# [8] = test system: U373; assay: SRB cytotoxicity assay, U373; type: cell-based
# Description: as §1, §2
# [9] = test system: MCF7; assay: SRB cytotoxicity assay, MCF7; type: cell-based
# Description: as §1, §2
# [10] = test system: A549; assay: SRB cytotoxicity assay, A549; type: cell-based
# Description: as §1, §2
structure (smiles),measurement,setting,value
"COc1cccc2c1C(=O)c1c(O)c3c(c(O)c1C2=O)C[C@@](O)(C(=O)CO)C[C@@H]3O[C@H]1C[C@H](N)[C@H](O)[C@H](C)O1 [DOX, Doxorubicin, reference compound]",Selectivity index,[1]; F180 versus HeLa,0.6
same,Selectivity index,[1]; HME1 versus HeLa,2.4
same,IC50,"[1]; Homo sapiens, HeLa, SRB, mean ± SEM",460 ± 460 nM
same,Selectivity index,[2]; F180 versus HepG2,0.78
same,Selectivity index,[2]; HME1 versus HepG2,3.02
same,IC50,"[2]; Homo sapiens, HepG2, SRB, mean ± SEM",370 ± 120 nM
same,Selectivity index,[3]; F180 versus U87,2.9
same,Selectivity index,[3]; HME1 versus U87,11.2
same,IC50,"[3]; Homo sapiens, U-87 MG, U87, SRB, mean ± SEM",100 ± 90 nM
same,IC50,[4]; HME1 normal epithelial,1120 ± 190 nM
same,IC50,"[4]; Homo sapiens, HME1, HME1 normal epithelial",< 1200 nM
same,IC50,[5],290 ± 370 nM
same,IC50,[5]; listed as doxorubicin,< 1200 nM
same,Selectivity index,[6]; F180 versus HCT116,2.6
same,Selectivity index,[6]; HME1 versus HCT116,10.2
same,IC50,"[6]; Homo sapiens, HCT-116, SRB, mean ± SEM",110 nM
same,Selectivity index,[7]; F180 versus MDA-MB-231,0.64
same,Selectivity index,[7]; HME1 versus MDA-MB-231,2.5
same,IC50,"[7]; Homo sapiens, MDA-MB-231, SRB, mean ± SEM",450 ± 110 nM
same,Selectivity index,[8]; F180 versus U373,0.33
same,Selectivity index,[8]; HME1 versus U373,1.3
same,IC50,"[8]; Homo sapiens, U373 MG, U373, SRB, mean ± SEM",880 ± 90 nM
same,Selectivity index,[9]; F180 versus MCF7,4.8
same,Selectivity index,[9]; HME1 versus MCF7,18.7
same,IC50,"[9]; Homo sapiens, MCF7, SRB, mean ± SEM",60 nM
same,Selectivity index,[10]; F180 versus A549,0.47
same,Selectivity index,[10]; HME1 versus A549,1.81
same,IC50,"[10]; Homo sapiens, A549, SRB, mean ± SEM",620 ± 590 nM
